≈ marks a conversion by molar mass, not a printed value. Blank lines part the entries; values can stand above or below the molecule they belong to.
Legend:
[1] = Cytotoxicity against human A549 cells by sulforhodamine-B assay; type: functional, cell-based
[2] = Cytotoxicity against human NCI-H157 cells by sulforhodamine-B assay; type: functional, cell-based
[3] = Cytotoxicity against human HepG2 cells after 72 hrs by sulforhodamine-B assay; type: functional, cell-based; conditions: HepG2, 72 h
[4] = Cytotoxicity against human A549 cells measured after 3 days by MTT assay; type: functional; conditions: A549, 72 h
[5] = Cytotoxicity against human HeLa cells measured after 3 days by MTT assay; type: functional; conditions: 72 h
[6] = molecular target: cGMP-inhibited 3',5'-cyclic phosphodiesterase 3A (Homo sapiens, UniProt Q14432); assay: Inhibition of human PDE3A using fluorescein-labelled cAMP as substrate measured after 60 mins by IMAP TR-FRET assay
[7] = Cytotoxicity against human HeLa cells measured after 24 hrs by MTT assay; type: functional, cell-based
[8] = Cytotoxicity against human MCF7 cells measured after 24 hrs by MTT assay; type: functional, cell-based; conditions: MCF7, 24 h
[9] = Cytotoxicity against human MCF7 cells by MTT assay; type: functional, cell-based
[10] = Cytotoxicity against human MDA-MB-231 cells by MTT assay; type: functional, cell-based
[11] = Cytotoxicity against human PC3 cells by MTT assay; type: functional, cell-based; conditions: PC-3
[12] = Cytotoxicity against human DU145 cells by MTT assay; type: functional, cell-based; conditions: DU-145
[13] = Cytotoxicity against human Calu1 cells by sulforhodamine-B assay; type: functional, cell-based; conditions: Calu-1
[14] = Cytotoxicity against human MCF7 cells measured after 3 days by MTT assay; type: functional; conditions: MCF7, 72 h

Sequence of cGMP-inhibited 3',5'-cyclic phosphodiesterase 3A (Q14432 whole entry): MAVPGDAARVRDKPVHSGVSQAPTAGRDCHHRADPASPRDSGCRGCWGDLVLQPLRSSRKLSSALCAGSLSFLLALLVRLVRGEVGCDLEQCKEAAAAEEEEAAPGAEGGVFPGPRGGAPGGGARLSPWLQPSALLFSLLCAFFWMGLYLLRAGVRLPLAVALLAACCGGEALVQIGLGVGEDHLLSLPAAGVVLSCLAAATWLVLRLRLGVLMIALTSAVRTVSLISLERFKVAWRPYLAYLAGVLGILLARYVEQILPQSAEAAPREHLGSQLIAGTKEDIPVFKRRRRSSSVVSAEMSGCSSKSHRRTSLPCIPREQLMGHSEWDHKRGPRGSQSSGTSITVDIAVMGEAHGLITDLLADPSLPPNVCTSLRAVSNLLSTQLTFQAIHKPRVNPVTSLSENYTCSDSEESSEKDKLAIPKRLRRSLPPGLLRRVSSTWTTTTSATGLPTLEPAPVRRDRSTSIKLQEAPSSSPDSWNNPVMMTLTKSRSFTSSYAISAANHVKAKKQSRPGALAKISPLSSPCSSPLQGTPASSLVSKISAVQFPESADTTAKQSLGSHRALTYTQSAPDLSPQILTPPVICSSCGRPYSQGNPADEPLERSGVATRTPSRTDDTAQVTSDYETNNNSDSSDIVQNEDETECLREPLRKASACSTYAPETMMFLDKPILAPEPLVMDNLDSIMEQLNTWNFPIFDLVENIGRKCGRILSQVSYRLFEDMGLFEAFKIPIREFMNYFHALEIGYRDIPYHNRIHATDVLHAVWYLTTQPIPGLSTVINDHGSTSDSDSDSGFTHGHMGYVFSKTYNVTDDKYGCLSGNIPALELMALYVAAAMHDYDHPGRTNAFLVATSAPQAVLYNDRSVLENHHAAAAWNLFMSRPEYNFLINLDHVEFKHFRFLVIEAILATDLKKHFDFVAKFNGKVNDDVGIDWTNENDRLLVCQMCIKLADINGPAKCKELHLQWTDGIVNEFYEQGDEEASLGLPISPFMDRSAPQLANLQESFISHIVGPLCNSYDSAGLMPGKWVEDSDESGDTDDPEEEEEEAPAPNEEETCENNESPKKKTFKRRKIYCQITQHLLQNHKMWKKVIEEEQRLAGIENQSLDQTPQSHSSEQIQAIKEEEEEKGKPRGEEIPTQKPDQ

SMILES: Cc1onc(-c2ccc([N+](=O)[O-])cc2)c1C(=O)/C=C/c1ccccc1Br
- IC50 [1]: 11.1 µM
- IC50 [2]: 7.27 µM

SMILES: COC(=O)c1ccccc1-n1c(N)c(C(N)=O)c(-c2ccc(N(C)C)cc2)cc1=O
- IC50 [3]: 1.34 µM

SMILES: CC(C)NC(=O)c1cccc2c(Cc3cccc(Cl)c3)c3ccccc3nc12
- CC50 [4]: 100 µg/mL (≈ 257 µM)

SMILES: CC(C)NC(=O)c1cccc2c(Cc3ccc(C(=O)O)cc3)c3ccccc3nc12
- CC50 [5]: 47.5 µg/mL (≈ 119 µM)

- IC50 [6]: 0.00376 µM
SMILES: CCSc1ncc(-c2cc(-c3ccc(Br)cc3)[nH]c(=N)c2C#N)n1Cc1ccccc1
- IC50 [7]: 34.3 µM
- IC50 [8]: 50.2 µM

SMILES: COC(=O)c1ccccc1-n1c(N)c(C#N)c(-c2ccc(N(C)C)cc2)cc1=O
- IC50 [3]: 0.02 µM

SMILES: Clc1ccc(C2=NO[C@@]3(CCCCO3)[C@H]2Br)cc1
- IC50 [9]: 43 to 56 µM
- IC50 [10]: 43 to 56 µM
- IC50 [11]: 43 to 56 µM
- IC50 [12]: 43 to 56 µM

SMILES: Cc1onc(-c2ccc([N+](=O)[O-])cc2)c1C(=O)/C=C/c1ccccc1Cl
- IC50 [13]: 2.07 µM
- IC50 [2]: 1.35 µM

SMILES: Cc1ccc2nc3ccccc3c(Nc3cccc(Cl)c3)c2c1
- CC50 [4]: 188 µg/mL (≈ 588 µM)
- CC50 [14]: 212 µg/mL (≈ 667 µM)

SMILES: Clc1cccc(Cl)c1C1=NO[C@@]2(CCCCO2)[C@H]1Br
- IC50 [9]: 43 to 56 µM
- IC50 [10]: 43 to 56 µM
- IC50 [11]: 43 to 56 µM
- IC50 [12]: 43 to 56 µM

From ChEMBL document CHEMBL3877255, “Structure-activity relationship (SAR) study and design strategies of nitrogen-containing heterocyclic moieties for their anticancer activities” (Eur J Med Chem, 2017)
